Experimental data reported in US12252481B2, “Anti-viral compounds” (Aligos Therapeutics, Inc., priority 2021, dated 2025).

Legend:
[1] = target: T1, SARS-Cov-2 3CLpro (Severe acute respiratory syndrome coronavirus 2, UniProt P0DTD1); assay: biochemical; settings: 3CLpro, 30 mins preincubation, SAMDI-MS; read-out: SARS-Cov-2 IC50 (class)
T1 construct: 3CLpro and HRV3C was added using a Multidrop Combi

[2] = target: T2, HRV3C (Human rhinovirus 14, UniProt P03303); assay: biochemical; design: species or system HRV; settings: HRV3C, 30 mins preincubation, SAMDI-MS; read-out: HRV IC50 (bound)
T2 construct: 3CLpro and HRV3C was added using a Multidrop Combi
T2 sequence (P03303 1538-1719): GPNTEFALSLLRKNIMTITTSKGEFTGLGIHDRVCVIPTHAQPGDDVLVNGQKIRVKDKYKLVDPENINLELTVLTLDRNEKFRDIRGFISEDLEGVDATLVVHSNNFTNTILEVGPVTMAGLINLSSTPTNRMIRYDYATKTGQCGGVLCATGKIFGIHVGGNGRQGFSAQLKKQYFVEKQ

[3] = test system: human beta-coronavirus OC43; assay: OC43 coronavirus antiviral assay in HeLa cells (cytopathic effect, cell-titer-glo); format: cell-based; settings: Betacoronavirus 1, OC43, HeLa, 144 h, 6 days at 33° C., read-out: EC50 (class)
[4] = test system: SARS-CoV-2-GHB-03021/2020; format: cell-based; settings: read-out: VeroE6 + CP (EC50)
[5] = test system: B.1.1.7 lineage SARS-CoV-2; assay: microbe, parasite or virus in culture; format: cell-based; settings: Severe acute respiratory syndrome coronavirus 2, 96 h; read-out: A549-dual_ACE2_TMPRSS2 (EC50)
[6] = target: T3, human cathepsin L (Homo sapiens, UniProt P07711); assay: Cathepsin L assay (Z-FR-AMC fluorescence); format: biochemical; settings: 10 pM human cathepsin L, 30 mins preincubation, Z-FR-AMC 2 μM
T3 construct: purchased R&D Systems
T3 sequence (P07711 114-333): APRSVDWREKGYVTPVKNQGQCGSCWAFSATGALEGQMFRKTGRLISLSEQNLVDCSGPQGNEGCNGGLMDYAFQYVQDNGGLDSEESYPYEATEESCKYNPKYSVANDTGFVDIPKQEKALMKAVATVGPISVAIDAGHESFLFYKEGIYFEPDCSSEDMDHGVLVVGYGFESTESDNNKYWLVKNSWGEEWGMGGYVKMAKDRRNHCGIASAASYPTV
How it was run: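 Human cathepsin L (10 pM) was preincubated 30 min with compound, then reactions were started with Z-FR-AMC substrate (2 μM final). AMC fluorescence (355/460 nm) was read every 2 min over 30 min. IC50 came from a four-parameter curve fit.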

| SMILES | IC50 [1] | IC50 [2] | EC50 [3] | EC50 [4] | EC50 [5] | IC50 [6] |
| --- | --- | --- | --- | --- | --- | --- |
| CC(C)(C)[C@H](NC(=O)C(F)(F)F)C(=O)N1C[C@H]2[C@@H]([C@H]1C(=O)N[C@H](C#N)C[C@@H]1CCNC1=O)[C@H]1CC[C@@H]2C12CC2 [Example 18, (1′R,2′S,3′S,6′R,7′S)—N-[(1S)-1-cyano-2-[(3S)-2-oxopyrrolidin-3-yl]ethyl]-4′-[(2S)-3,3-dimethyl-2-(2,2,2-trifluoroacetamido)butanoyl]-4′-azaspiro[cyclopropane-1,10′-tricyclo[5.2.1.0^{2,6}]decane]-3′-carboxamide] | < 20 nM | > 10000 nM | < 100 nM | < 100 nM | 100 to 1000 nM | ≥ 10000 nM |
| CC(C)(C)[C@H](NC(=O)c1ccco1)C(=O)N1C[C@H]2[C@@H]([C@H]1C(=O)N[C@H](C#N)C[C@@H]1CCNC1=O)[C@H]1C=C[C@@H]2C1 [Example 19, (1S,3aR,4S,7R,7aS)-N-((S)-1-cyano-2-((S)-2-oxopyrrolidin-3-yl)ethyl)-2-((S)-2-(furan-2-carboxamido)-3,3-dimethylbutanoyl)-2,3,3a,4,7,7a-hexahydro-1H-4,7-methanoisoindole-1-carboxamide] | 20 to 200 nM | > 10000 nM | < 100 nM | 100 to 1000 nM | 100 to 1000 nM | ≥ 10000 nM |
| CC(C)(C)[C@H](NC(=O)[C@H]1CCCO1)C(=O)N1C[C@H]2[C@@H]([C@H]1C(=O)N[C@H](C#N)C[C@@H]1CCNC1=O)[C@H]1C=C[C@@H]2C1 [Example 22, (1S,3aR,4S,7R,7aS)-N-((S)-1-cyano-2-((S)-2-oxopyrrolidin-3-yl)ethyl)-2-((S)-3,3-dimethyl-2-((R)-tetrahydrofuran-2-carboxamido)butanoyl)-2,3,3a,4,7,7a-hexahydro-1H-4,7-methanoisoindole-1-carboxamide] | 200 to 2000 nM | > 10000 nM | 1000 to 10000 nM | 1000 to 10000 nM | 1000 to 10000 nM | ≥ 10000 nM |
| CC(C)(C)[C@H](NC(=O)C(F)(F)F)C(=O)N1C[C@@H]2[C@H]3C[C@@H]([C@@H]2[C@H]1C(=O)N[C@H](C#N)C[C@@H]1CCNC1=O)[C@H]1[C@@H]3C1(F)F [Example 23, (1S,2S,3S,6R,7R,8R,10S)—N-[(1S)-1-cyano-2-[(3S)-2-oxopyrrolidin-3-yl]ethyl]-4-[(2S)-3,3-dimethyl-2-(2,2,2-trifluoroacetamido)butanoyl]-9,9-difluoro-4-azatetracyclo[5.3.1.0^{2,6}0.0^{8,10}]undecane-3-carboxamide] | 20 to 200 nM | > 10000 nM | 1000 to 10000 nM | 100 to 1000 nM | 100 to 1000 nM | ≥ 10000 nM |
| CC1(C(NC(=O)C(F)(F)F)C(=O)N2C[C@H]3[C@@H]([C@H]2C(=O)N[C@H](C#N)C[C@@H]2CCNC2=O)[C@H]2C=C[C@@H]3C2)CC1 (stereo partly drawn) [Example 24, (1R,2S,3S,6R,7S)—N-[(1S)-1-cyano-2-[(3S)-2-oxopyrrolidin-3-yl]ethyl]-4-[2-(1-methylcyclopropyl)-2-(2,2,2-trifluoroacetamido)acetyl]-4-azatricyclo[5.2.1.0^{2,6}]dec-8-ene-3-carboxamide] | < 20 nM | > 10000 nM | < 100 nM | 100 to 1000 nM | 100 to 1000 nM | ≥ 10000 nM |
| CC(C)(C)[C@H](NC(=O)C(F)(F)F)C(=O)N1C[C@H]2[C@@H]([C@H]1C(=O)NC(C#N)C[C@]13CC[C@H](C1)NC3=O)[C@H]1C=C[C@@H]2C1 (stereo partly drawn) [Example 26, (1S,3aR,4S,7R,7aS)—N-(1-cyano-2-((1R,4S)-3-oxo-2-azabicyclo[2.2.1]heptan-4-yl)ethyl)-2-((S)-3,3-dimethyl-2-(2,2,2-trifluoroacetamido)butanoyl)-2,3,3a,4,7,7a-hexahydro-1H-4,7-methanoisoindole-1-carboxamide] | 20 to 200 nM | > 10000 nM | 100 to 1000 nM | 100 to 1000 nM | 100 to 1000 nM | ≥ 10000 nM |
| N#C[C@H](C[C@@H]1CCNC1=O)NC(=O)[C@@H]1[C@@H]2[C@H](CN1C(=O)[C@@H](NC(=O)C(F)(F)F)C13CC(C1)C3)[C@@H]1C=C[C@H]2C1 [Example 27, (1R,2S,3S,6R,7S)-4-[(2S)-2-{bicyclo[1.1.1]pentan-1-yl}-2-(2,2,2-trifluoroacetamido)acetyl]-N-[(1S)-1-cyano-2-[(3S)-2-oxopyrrolidin-3-yl]ethyl]-4-azatricyclo[5.2.1.0^{2,6}]dec-8-ene-3-carboxamide] | < 20 nM | > 10000 nM | < 100 nM | < 100 nM | 100 to 1000 nM | ≥ 10000 nM |
| C=CC(C)(C)[C@H](NC(=O)C(F)(F)F)C(=O)N1C[C@H]2[C@@H]([C@H]1C(=O)N[C@H](C#N)C[C@@H]1CCNC1=O)[C@H]1C=C[C@@H]2C1 [Example 28, (1R,2S,3S,6R,7S)—N-[(1S)-1-cyano-2-[(3S)-2-oxopyrrolidin-3-yl]ethyl]-4-[(2S)-3,3-dimethyl-2-(2,2,2-trifluoroacetamido)pent-4-enoyl]-4-azatricyclo[5.2.1.0^{2,6}]dec-8-ene-3-carboxamide] | < 20 nM | > 10000 nM | < 100 nM | < 100 nM | < 100 nM | ≥ 10000 nM |
| CC(C)(C)[C@H](NC(=O)C1(F)CC1)C(=O)N1C[C@H]2[C@@H]([C@H]1C(=O)N[C@H](C#N)C[C@@H]1CCNC1=O)[C@H]1C=C[C@@H]2C1 [Example 30, (1R,2S,3S,6R,7S)—N-[(1S)-1-cyano-2-[(3S)-2-oxopyrrolidin-3-yl]ethyl]-4-[(2S)-2-[(1-fluorocyclopropyl)formamido]-3,3-dimethylbutanoyl]-4-azatricyclo[5.2.1.0^{2,6}]dec-8-ene-3-carboxamide] | < 20 nM | > 10000 nM | < 100 nM | < 100 nM | < 100 nM | ≥ 10000 nM |
| [2H][C@@H]1[C@H]([2H])[C@@H]2C[C@H]1[C@H]1[C@@H]2CN(C(=O)[C@@H](NC(=O)C(F)(F)F)C(C)(C)C)[C@@H]1C(=O)N[C@H](C#N)C[C@@H]1CCNC1=O [Example 32, (1S,3aR,4R,5S,6R,7S,7aS)-N-((S)-1-cyano-2-((S)-2-oxopyrrolidin-3-yl)ethyl)-2-((S)-3,3-dimethyl-2-(2,2,2-trifluoroacetamido)butanoyl)octahydro-1H-4,7-methanoisoindole-5,6-d^2-1-carboxamide] | < 20 nM | > 10000 nM | < 100 nM | < 100 nM | < 100 nM | ≥ 10000 nM |
| CC(C)(C)[C@H](NC(=O)[C@H]1CC1(F)F)C(=O)N1C[C@H]2[C@@H]([C@H]1C(=O)N[C@H](C#N)C[C@@H]1CCNC1=O)[C@H]1C=C[C@@H]2C1 [Example 33, (1S,3aR,4S,7R,7aS)-N-((S)-1-cyano-2-((S)-2-oxopyrrolidin-3-yl)ethyl)-2-((S)-2-((R)-2,2-difluorocyclopropane-1-carboxamido)-3,3-dimethylbutanoyl)-2,3,3a,4,7,7a-hexahydro-1H-4,7-methanoisoindole-1-carboxamide] | < 20 nM | > 10000 nM | < 100 nM | < 100 nM | 100 to 1000 nM | ≥ 10000 nM |
| CC(C)(C)[C@H](NC(=O)C1CC12CC2)C(=O)N1C[C@H]2[C@@H]([C@H]1C(=O)N[C@H](C#N)C[C@@H]1CCNC1=O)[C@H]1C=C[C@@H]2C1 (stereo partly drawn) [Example 34, (1R,2S,3S,6R,7S)—N-[(1S)-1-cyano-2-[(3S)-2-oxopyrrolidin-3-yl]ethyl]-4-[(2S)-3,3-dimethyl-2-{spiro[2.2]pentan-1-ylformamido}butanoyl]-4-azatricyclo[5.2.1.0^{2,6}]dec-8-ene-3-carboxamide] | < 20 nM | > 10000 nM | < 100 nM | < 100 nM | 100 to 1000 nM | ≥ 10000 nM |
| CC(C)(C)[C@H](NC(=O)C1(C2CC2)CC1)C(=O)N1C[C@H]2[C@@H]([C@H]1C(=O)N[C@H](C#N)C[C@@H]1CCNC1=O)[C@H]1C=C[C@@H]2C1 [Example 35, (1R,2S,3S,6R,7S)-4-[(2S)-2-{[1,1′-bi(cyclopropane)]-1-ylformamido}-3,3-dimethylbutanoyl]-N-[(1S)-1-cyano-2-[(3S)-2-oxopyrrolidin-3-yl]ethyl]-4-azatricyclo[5.2.1.0^{2,6}]dec-8-ene-3-carboxamide] | 20 to 200 nM | > 10000 nM | 100 to 1000 nM | 100 to 1000 nM | 1000 to 10000 nM | ≥ 10000 nM |
| CC(C)(C)[C@H](NC(=O)C1COC1)C(=O)N1C[C@H]2[C@@H]([C@H]1C(=O)N[C@H](C#N)C[C@@H]1CCNC1=O)[C@H]1C=C[C@@H]2C1 [Example 36, (1R,2S,3S,6R,7S)—N-[(1S)-1-cyano-2-[(3S)-2-oxopyrrolidin-3-yl]ethyl]-4-[(2S)-3,3-dimethyl-2-(oxetan-3-ylformamido)butanoyl]-4-azatricyclo[5.2.1.0^{2,6}]dec-8-ene-3-carboxamide] | < 20 nM | > 10000 nM | 100 to 1000 nM | 100 to 1000 nM | 1000 to 10000 nM | ≥ 10000 nM |
